Experimental data from patent US20230250106A1, “COMPOUNDS AND COMPOSITIONS FOR TREATING CONDITIONS ASSOCIATED WITH STING ACTIVITY” (IFM Due, Inc., priority 2020, published 2023).

System: STING pathway
Test: STING reporter assay: luciferase reporter activity in THP1-Dual KO-IFNAR2 cells activated with 2'3'cGAMP
Type: cell-based
Settings: Homo sapiens, 2'3'cGAMP 15 μM, 24 h, read-out: hSTING EC50
Method in brief: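 Luciferase secreted into the supernatant (QUANTI-Luc Plus read-out) was measured after 24 h at 37 °C. This was in THP1-Dual KO-IFNAR2 cells given test compounds (0.0017-100 μM final) plus Lipofectamine-transfected 2′3′cGAMP at 15 μM final; EC50 was then derived.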

| EC50 [nM] | Compound |
| --- | --- |
| 200 to 1000 | O=C(Nc1c[nH]c2cc(F)c(F)cc12)c1ccnc(NCCCC(F)(F)F)c1 [Compound 203, N-(5,6-difluoro-1H-indol-3-yl)-2-((4,4,4-trifluorobutyl)amino)isonicotinamide] |
| 1000 to 5000 | Cc1cc(C(=O)Nc2c[nH]c3cc(F)c(F)cc23)cnc1N1CC2(CCOC2)C1 [Compound 207, N-(5,6-difluoro-1H-indol-3-yl)-5-methyl-6-(6-oxa-2-azaspiro[3.4]octan-2-yl)nicotinamide] |
| 200 to 1000 | CC(C)(CO)CCCNc1ncc(C(=O)Nc2c[nH]c3cc(F)c(F)cc23)cc1Cl [Compound 209, 5-chloro-N-(5,6-difluoro-1H-indol-3-yl)-6-((5-hydroxy-4,4-dimethylpentyl)amino)nicotinamide] |
| 200 to 1000 | N#CC1(c2ccc(C(=O)Nc3c[nH]c4cc(F)c(F)cc34)cc2)CCC(F)(F)CC1 [Compound 213, 4-(1-cyano-4,4-difluorocyclohexyl)-N-(5,6-difluoro-1H-indol-3-yl)benzamide] |
| 200 to 1000 | O=C(Nc1c[nH]c2cc(F)c(F)cc12)c1ccc(C2CC(F)(F)C2)nc1 [Compound 216, N-(5,6-difluoro-1H-indol-3-yl)-6-(3,3-difluorocyclobutyl)nicotinamide] |
| 40 to 200 | O=C(Nc1c[nH]c2cc(F)c(F)cc12)c1cnc(N2CCC3(CC2)CC3(F)F)c(F)c1 [Compound 219, N-(5,6-difluoro-1H-indol-3-yl)-6-(1,1-difluoro-6-azaspiro[2.5]octan-6-yl)-5-fluoronicotinamide] |
| 40 to 200 | CC1(c2ncc(C(=O)Nc3c[nH]c4cc(F)c(F)cc34)cc2F)CCC(F)(F)CC1 [Compound 220, 6-(4,4-difluoro-1-methylcyclohexyl)-N-(5,6-difluoro-1H-indol-3-yl)-5-fluoronicotinamide] |
| 40 to 200 | O=C(Nc1c[nH]c2cc(F)c(F)cc12)c1cnc(N2CC3(CC(OCC(F)(F)F)C3)C2)c(F)c1 [Compound 221, N-(5,6-difluoro-1H-indol-3-yl)-5-fluoro-6-(6-(2,2,2-trifluoroethoxy)-2-azaspiro[3.3]heptan-2-yl)nicotinamide] |
| 200 to 1000 | O=C(Nc1c[nH]c2cc(F)c(F)cc12)c1cnc(C2CC3(CC(OCC(F)(F)F)C3)C2)c(F)c1 (stereo not shown) [Compound 222, N-(5,6-difluoro-1H-indol-3-yl)-5-fluoro-6-(6-(2,2,2-trifluoroethoxy)spiro[3.3]heptan-2-yl)nicotinamide] |
| 40 to 200 | O=C(Nc1c[nH]c2cc(F)c(F)cc12)c1cnc(N2C[C@@H]3[C@@H](COCC(F)(F)F)[C@@H]3C2)c(F)c1 [Compound 223, N-(5,6-difluoro-1H-indol-3-yl)-5-fluoro-6-((1R,5S,6r)-6-((2,2,2-trifluoroethoxy)methyl)-3-azabicyclo[3.1.0]hexan-3-yl)nicotinamide] |
| 40 to 200 | O=C(Nc1c[nH]c2ccc(Cl)cc12)c1cnc(N2C[C@@H]3[C@@H](COCC(F)(F)F)[C@@H]3C2)c(F)c1 [Compound 224, N-(5-chloro-1H-indol-3-yl)-5-fluoro-6-((1R,5S,6r)-6-((2,2,2-trifluoroethoxy)methyl)-3-azabicyclo[3.1.0]hexan-3-yl)nicotinamide] |
| 40 to 200 | O=C(Nc1c[nH]c2ccc(Cl)cc12)c1ccc(N2C[C@@H]3[C@@H](COCC(F)(F)F)[C@@H]3C2)c(F)c1 [Compound 225, N-(5-chloro-1H-indol-3-yl)-3-fluoro-4-((1R,5S,6r)-6-((2,2,2-trifluoroethoxy)methyl)-3-azabicyclo[3.1.0]hexan-3-yl)benzamide] |
| 200 to 1000 | COCCOc1ncc(C(=O)Nc2c[nH]c3cc(F)c(F)cc23)cc1C [Compound 226, N-(5,6-difluoro-1H-indol-3-yl)-6-(2-methoxyethoxy)-5-methylnicotinamide] |
| 40 to 200 | O=C(Nc1c[nH]c2cc(F)c(F)cc12)c1ccc(N2C[C@@H]3[C@@H](COCC(F)(F)F)[C@@H]3C2)c(F)c1 [Compound 227, N-(5,6-difluoro-1H-indol-3-yl)-3-fluoro-4-((1R,5S,6r)-6-((2,2,2-tifluoroethoxy)methyl)-3-azabicyclo[3.1.0]hexan-3-yl)benzamide] |
| 1000 to 5000 | CCC(O)Cc1ccc(C(=O)Nc2c[nH]c3cc(F)c(F)cc23)cn1 (stereo not shown) [Compound 228, N-(5,6-difluoro-1H-indol-3-yl)-6-(2-hydroxybutyl)nicotinamide] |
| 40 to 200 | O=C(Nc1c[nH]c2ccc(Cl)cc12)c1ccc(CC2CCN(CC(F)(F)F)CC2)cc1 [Compound 229, N-(5-chloro-1H-indol-3-yl)-4-((1-(2,2,2-trifluoroethyl)piperidin-4-yl)methyl)benzamide] |
| 40 to 200 | O=C(Nc1c[nH]c2ccc(Cl)cc12)c1ccc(OC2CCN(CC(F)(F)F)CC2)cc1 [Compound 230, N-(5-chloro-1H-indol-3-yl)-4-((1-(2,2,2-trifluoroethyl)piperidin-4-yl)oxy)benzamide] |

| EC50 [nM] | Compound |
| --- | --- |
| 200 to 1000 | COCCOc1cc(C(=O)Nc2c[nH]c3cc(F)c(F)cc23)ccc1C(F)(F)F [Compound 232, N-(5,6-difluoro-1H-indol-3-yl)-3-(2-methoxyethoxy)-4-(trifluoromethyl)benzamide] |
| 200 to 1000 | O=C(Nc1c[nH]c2cc(F)c(F)cc12)c1ccc(C(O)C2CC(F)(F)C2)cc1 (stereo not shown) [Compound 233, N-(5,6-difluoro-1H-indol-3-yl)-4-((3,3-difluorocyclobutyl)(hydroxy)methyl)benzamide] |
| 200 to 1000 | O=C(Nc1c[nH]c2cc(F)c(F)cc12)c1cccc(-c2noc(C3CC3)n2)c1 [Compound 234, 3-(5-cyclopropyl-1,2,4-oxadiazol-3-yl)-N-(5,6-difluoro-1H-indol-3-yl)benzamide] |
| 5000 to 100000 | O=C(Nc1c[nH]c2cc(F)c(F)cc12)c1ccnc(C(O)C(F)(F)F)c1 (stereo not shown) [Compound 235, N-(5,6-difluoro-1H-indol-3-yl)-2-(2,2,2-trifluoro-1-hydroxyethyl)isonicotinamide] |
| 200 to 1000 | COCCNc1cc(C(=O)Nc2c[nH]c3cc(F)c(F)cc23)ccc1C(F)(F)F [Compound 236, N-(5,6-difluoro-1H-indol-3-yl)-3-((2-methoxyethyl)amino)-4-(trifluoromethyl)benzamide] |
| 200 to 1000 | O=C(Nc1c[nH]c2cc(F)c(F)cc12)c1ccc(CN2CC3(C2)CC(F)(F)C3)c(F)c1 [Compound 237, N-(5,6-difluoro-1H-indol-3-yl)-4-((6,6-difluoro-2-azaspiro[3.3]heptan-2-yl)methyl)-3-fluorobenzamide] |
| 5000 to 100000 | COCCNc1cc(C(=O)Nc2c[nH]c3cc(F)c(F)cc23)ccn1 [Compound 238, N-(5,6-difluoro-1H-indol-3-yl)-2-((2-methoxyethyl)amino)isonicotinamide] |
| 200 to 1000 | O=C(Nc1c[nH]c2cc(F)c(F)cc12)c1cnc(NCCC(F)(F)F)c(Cl)c1 [Compound 239, 5-chloro-N-(5,6-difluoro-1H-indol-3-yl)-6-((3,3,3-trifluoropropyl)amino)nicotinamide] |
| 200 to 1000 | O=C(Nc1c[nH]c2cc(F)c(F)cc12)c1cnc(C2CC(F)(F)C2)c(Cl)c1 [Compound 240, 5-chloro-N-(5,6-difluoro-1H-indol-3-yl)-6-(3,3-difluorocyclobutyl)nicotinamide] |
| 5000 to 100000 | CCC(O)c1cc(C(=O)Nc2c[nH]c3cc(F)c(F)cc23)ccn1 (stereo not shown) [Compound 241, N-(5,6-difluoro-1H-indol-3-yl)-2-(1-hydroxypropyl)isonicotinamide] |
| 200 to 1000 | O=C(Nc1c[nH]c2cc(F)c(F)cc12)c1cnc(NCCC(F)(F)F)c(F)c1 [Compound 242, N-(5,6-difluoro-1H-indol-3-yl)-5-fluoro-6-((3,3,3-trifluoropropyl)amino)nicotinamide] |
| 200 to 1000 | Cc1ncc(C(=O)Nc2c[nH]c3cc(F)c(F)cc23)cc1NCCCC(F)(F)F [Compound 243, N-(5,6-difluoro-1H-indol-3-yl)-6-methyl-5-((4,4,4-trifluorobutyl)amino)nicotinamide] |
| 200 to 1000 | O=C(Nc1c[nH]c2cc(F)c(F)cc12)c1ccc(OC2CN(CC(F)(F)F)C2)nc1 [Compound 246, N-(5,6-difluoro-1H-indol-3-yl)-6-((1-(2,2,2-trifluoroethyl)azetidin-3-yl)oxy)nicotinamide] |
| 200 to 1000 | O=C(Nc1c[nH]c2cc(F)c(F)cc12)c1ccnc(NC2CC(F)(F)C2)c1 [Compound 247, N-(5,6-difluoro-1H-indol-3-yl)-2-((3,3-difluorocyclobutyl)amino)isonicotinamide] |
| 5000 to 100000 | O=C(Nc1c[nH]c2cc(F)c(F)cc12)c1ccc(C2(O)CCOCC2)cc1 [Compound 248, N-(5,6-difluoro-1H-indol-3-yl)-4-(4-hydroxytetrahydro-2H-pyran-4-yl)benzamide] |
| 200 to 1000 | CC(C)(C)OC(=O)N1CCC(Oc2ccc(C(=O)Nc3c[nH]c4cc(F)c(F)cc34)cc2)CC1 [Compound 249, tert-butyl 4-{4-[(5,6-difluoro-1H-indol-3-yl)carbamoyl]phenoxy}piperidine-1-carboxylate] |

| Compound | EC50 [nM] |
| --- | --- |
| O=C(Nc1c[nH]c2ccc(-c3cnn(-c4cccc(C5CC5)c4)c3)cc12)c1ccc(OCCCC(F)(F)F)cc1 [Compound 201, N-(5-(1-(3-cyclopropylphenyl)-1H-pyrazol-4-yl)-1H-indol-3-yl)-4-(4,4,4-trifluorobutoxy)benzamide] | 200 to 1000 |
| CC(C)n1cc(-c2cc(F)c3[nH]cc(NC(=O)c4ccc(OCCCC(F)(F)F)cc4)c3c2)cn1 [Compound 204, N-(7-fluoro-5-(1-isopropyl-1H-pyrazol-4-yl)-1H-indol-3-yl)-4-(4,4,4-trifluorobutoxy)benzamide] | 200 to 1000 |
| Cc1nc(C(=O)Nc2c[nH]c3cc(F)c(F)cc23)cnc1OC1CC(F)(F)C1 [Compound 208, N-(5,6-difluoro-1H-indol-3-yl)-5-(3,3-difluorocyclobutoxy)-6-methylpyrazine-2-carboxamide] | 200 to 1000 |
| CC1(c2ccc(C(=O)Nc3c[nH]c4cc(F)c(F)cc34)cn2)CCN(CC(F)(F)F)CC1 [Compound 218, N-(5,6-difluoro-1H-indol-3-yl)-6-(4-methyl-1-(2,2,2-trifluoroethyl)piperidin-4-yl)nicotinamide] | 200 to 1000 |
